Series [1] deals with High affinity nerve growth factor receptor (Homo sapiens, UniProt P04629).
Description: Inhibition of recombinant His-tagged human TrKA expressed in baculovirus expression system by LanthaScreen assay
Series [2] concerns the target Vascular endothelial growth factor receptor 3 (Homo sapiens) (UniProt P35916). The experiment in a line: Inhibition of human recombinant FLT4 expressed in baculovirus expression system at 1 uM by LanthaScreen assay.
Another series has as its system H9c2. Description: Cytotoxicity against rat H9c2 cells assessed as cell viability at 10 to 50 nM measured after 72 hrs by ATP Cell titer-Glo assay. It is filed as toxicity, cell-based. To be noted: h9c2, 72 h, 0.05 µM, dose 10-50 nM.
Series [3] addresses Proto-oncogene tyrosine-protein kinase Src (Homo sapiens) (UniProt P12931). Description: Inhibition of human recombinant Src expressed in baculovirus expression system at 1 uM by LanthaScreen assay.
Series [4] has as its system MOLM-13. The experiment in a line: Inhibition of colony formation in human MOLM-13 cells at 500 nM measured after 7 days. It is filed as functional, cell-based. The note with it: time 7.0 day.
Series [5] addresses Vascular endothelial growth factor receptor 2 (Homo sapiens) (UniProt P35968). The experiment in a line: Inhibition of human recombinant KDR expressed in baculovirus expression system at 1 uM by LanthaScreen assay.
The target of series [6] is Platelet-derived growth factor receptor beta (Homo sapiens) (UniProt P09619). Description: Inhibition of human recombinant PDGFRB expressed in baculovirus expression system at 1 uM by LanthaScreen assay.
Series [7] relates to MV4-11. Description: Cell cycle arrest in human MV4-11 cells assessed as accumulation at G0/G1 phase at 10 to 50 nM measured after 72 hrs by flow cytometry. To be noted: dose 10-50 nM. It is filed as functional, cell-based.
For the next series, the system named is KM12. The experiment in a line: Anticancer activity against human KM12 cells assessed as cell viability after 72 hrs by ATP Cell Titer G1oTM assay. It is filed as functional, cell-based. The note with it: KM12, 72 h.
The subject of series [8] is MV4-11. The experiment in a line: Inhibition of colony formation in human MV4-11 cells at 500 nM measured after 14 days. In kind it is functional, cell-based. The note with it: time 14.0 day.
Series [9] deals with T1, Receptor-type tyrosine-protein kinase FLT3 (Homo sapiens, UniProt P36888, D835Y).
Series [10] addresses Platelet-derived growth factor receptor alpha (Homo sapiens) (UniProt P16234). Description: Inhibition of PDGFRA (unknown origin) at 1 uM.
Series [11] addresses T2, Receptor-type tyrosine-protein kinase FLT3 (Homo sapiens, UniProt P36888).
Description: Inhibition of recombinant His-tagged human FLT3 (564 to 958 residues) expressed in baculovirus expression system by LanthaScreen assay
The target in series [12] is Mast/stem cell growth factor receptor Kit (Homo sapiens) (UniProt P10721). Description: Inhibition of c-Kit (unknown origin) at 1 uM.
Series [13] has as its system MOLM-13. Description: Induction of apoptosis in human MOLM-13 cells assessed as increase number of apoptotic cells at 10 to 50 nM measured after 72 hrs by propidium iodide staining based flow cytometry. It is filed as functional, cell-based. The note with it: dose 10-50 nM.
Series [14] deals with MV4-11. Description: Induction of apoptosis in human MV4-11 cells assessed as increase number of apoptotic cells at 10 to 50 nM measured after 72 hrs by propidium iodide staining based flow cytometry. It is filed as functional, cell-based. The note with it: dose 10-50 nM.
For series [15], the system named is MOLM-13. The experiment in a line: Cell cycle arrest in human MOLM-13 cells assessed as accumulation at G0/G1 phase at 10 to 50 nM measured after 72 hrs by flow cytometry. It is filed as functional, cell-based. The note with it: dose 10-50 nM.
Series [16] has as its system MV4-11. Description: Induction of apoptosis in human MV4-11 cells assessed as increase number of necrotic cells at 10 to 50 nM measured after 72 hrs by propidium iodide staining based flow cytometry. In kind it is functional, cell-based. The note with it: dose 10-50 nM.
The target in series [17] is Serine/threonine-protein kinase D2 (Homo sapiens) (UniProt Q9BZL6). Description: Inhibition of human recombinant PRKD2 expressed in baculovirus expression system at 1 uM by LanthaScreen assay.
Series [18] addresses Serine/threonine-protein kinase B-raf (Homo sapiens) (UniProt P15056). The experiment in a line: Inhibition of B-raf (unknown origin) at 1 uM.
Series [19] deals with MV4-11. The experiment in a line: cells. The note with it: Homo sapiens, MV4-11, 72 h.
For series [20], the target named is Vascular endothelial growth factor receptor 1 (Homo sapiens) (UniProt P17948). Description: Inhibition of human recombinant FLT1 expressed in baculovirus expression system at 1 uM by LanthaScreen assay.
The next series deals with BNL. The experiment in a line: Cytotoxicity against mouse BNL cells assessed as cell viability at 10 to 50 nM measured after 72 hrs by ATP Cell titer-Glo assay. It is filed as toxicity, cell-based. The note with it: 0.05 µM, dose 10-50 nM.
The target in series [21] is Tyrosine-protein kinase Lck (Homo sapiens) (UniProt P06239). Description: Inhibition of human recombinant LCK expressed in baculovirus expression system at 1 uM by LanthaScreen assay.
In series [22] the target is Tyrosine-protein kinase ABL1 (Homo sapiens) (UniProt P00519). Description: Inhibition of His-tagged recombinant human ABL1 at 1 uM.
Series [23] concerns Receptor-type tyrosine-protein kinase FLT3 (Homo sapiens), P36888 [UNDEFINED MUTATION]. Description: Inhibition of FLT3-ITD mutant in human MOLM-13 cells assessed as decrease in Erk1/2 phosphorylation measured after 24 to 48 hrs by Western blot analysis. It is filed as cell-based. The note with it: dose 10-100 nM, time 24-48 hrs, DDE = dose-dependent effect.
The target of series [24] is NT-3 growth factor receptor (Homo sapiens) (UniProt Q16288). Description: Inhibition of human recombinant TrkC expressed in baculovirus expression system at 1 uM by LanthaScreen assay.
Series [25] has as its target BDNF/NT-3 growth factors receptor (Homo sapiens) (UniProt Q16620). Description: Inhibition of human recombinant TrkB expressed in baculovirus expression system at 1 uM by LanthaScreen assay.
The target in series [26] is Fibroblast growth factor receptor 3 (Homo sapiens) (UniProt P22607). Description: Inhibition of FGFR3 (unknown origin) at 1 uM.
Series [27] has as its system MOLM-13. The experiment in a line: cells. The note with it: Homo sapiens, MOLM-13, 72 h.
For series [28], the system named is Receptor-type tyrosine-protein kinase FLT3 (Homo sapiens), P36888 [UNDEFINED MUTATION]. Description: Inhibition of FLT3-ITD mutant in human MV4-11 cells assessed as decrease in Erk1/2 phosphorylation measured after 24 to 48 hrs by Western blot analysis. It is filed as cell-based. To be noted: dose 10-100 nM, time 24-48 hrs, DDE = dose-dependent effect.
Series [29] has as its target T3, Receptor-type tyrosine-protein kinase FLT3 (Homo sapiens, UniProt P36888, ITD).
Series [30] concerns Receptor-type tyrosine-protein kinase FLT3 (Homo sapiens), P36888 [UNDEFINED MUTATION]. The experiment in a line: Inhibition of FLT3-ITD mutant in human MOLM-13 cells assessed as decrease in p-S6 kinase level measured after 24 to 48 hrs by Western blot analysis. In kind it is cell-based. The note with it: dose 10-100 nM, time 24-48 hrs, DDE = dose-dependent effect.
The target in series [31] is CDK2/Cyclin A2 (Homo sapiens) (UniProt P24941+P20248). The experiment in a line: Inhibition of His-tagged recombinant full length human CDK2/CyclinA expressed in baculovirus expression system at 1 uM by LanthaScreen assay.
In series [32] the test system is Receptor-type tyrosine-protein kinase FLT3 (Homo sapiens), P36888 [UNDEFINED MUTATION]. The experiment in a line: Inhibition of FLT3-ITD mutant in human MV4-11 cells assessed as decrease in p-S6 kinase level measured after 24 to 48 hrs by Western blot analysis. It is filed as cell-based. To be noted: dose 10-100 nM, time 24-48 hrs, DDE = dose-dependent effect.
In series [33] the test system is MOLM-13. The experiment in a line: Induction of apoptosis in human MOLM-13 cells assessed as increase number of necrotic cells at 10 to 50 nM measured after 72 hrs by propidium iodide staining based flow cytometry. It is filed as functional, cell-based. The note with it: dose 10-50 nM.
The target of series [34] is Serine/threonine-protein kinase pim-1 (Homo sapiens) (UniProt P11309). Description: Inhibition of human recombinant PIM1 expressed in baculovirus expression system at 1 uM by LanthaScreen assay.
Series [35] addresses Insulin-like growth factor 1 receptor (Homo sapiens) (UniProt P08069). Description: Inhibition of human recombinant IGF1R expressed in baculovirus expression system at 1 uM by LanthaScreen assay.
Series [36] addresses T1, Receptor-type tyrosine-protein kinase FLT3. The source holds these as a separate data set.
For series [37], the target named is T2, Receptor-type tyrosine-protein kinase FLT3. It is filed as cell-based, RS4-11.
Series [38] concerns the target T3, Receptor-type tyrosine-protein kinase FLT3. It is filed as cell-based, MV4-11.

The source made the active and inactive calls. No cut-off for these calls is given here.

NT-3 growth factor receptor (Homo sapiens), sequence (Q16288 32-839 limits assumed): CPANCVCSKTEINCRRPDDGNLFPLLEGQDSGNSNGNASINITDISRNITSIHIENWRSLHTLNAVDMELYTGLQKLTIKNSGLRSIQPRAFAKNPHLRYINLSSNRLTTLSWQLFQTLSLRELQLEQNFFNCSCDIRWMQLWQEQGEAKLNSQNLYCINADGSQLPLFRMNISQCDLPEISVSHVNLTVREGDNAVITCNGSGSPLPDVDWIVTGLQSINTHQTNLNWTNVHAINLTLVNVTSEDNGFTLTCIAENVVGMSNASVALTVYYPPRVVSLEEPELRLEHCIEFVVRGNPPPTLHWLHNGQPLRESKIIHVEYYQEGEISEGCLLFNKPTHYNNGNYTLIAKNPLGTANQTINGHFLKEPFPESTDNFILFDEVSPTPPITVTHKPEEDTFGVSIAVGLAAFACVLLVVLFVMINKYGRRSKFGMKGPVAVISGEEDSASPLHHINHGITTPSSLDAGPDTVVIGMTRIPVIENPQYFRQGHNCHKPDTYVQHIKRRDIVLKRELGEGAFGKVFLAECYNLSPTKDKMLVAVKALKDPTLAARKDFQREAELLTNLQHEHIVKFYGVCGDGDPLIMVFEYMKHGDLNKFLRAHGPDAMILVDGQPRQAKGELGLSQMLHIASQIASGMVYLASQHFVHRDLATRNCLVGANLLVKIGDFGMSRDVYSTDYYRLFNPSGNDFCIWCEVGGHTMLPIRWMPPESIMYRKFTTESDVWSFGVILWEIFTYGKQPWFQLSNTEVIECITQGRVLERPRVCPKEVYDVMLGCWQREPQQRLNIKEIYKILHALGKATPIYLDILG
Fibroblast growth factor receptor 3 (Homo sapiens), sequence (P22607 23-806 limits assumed): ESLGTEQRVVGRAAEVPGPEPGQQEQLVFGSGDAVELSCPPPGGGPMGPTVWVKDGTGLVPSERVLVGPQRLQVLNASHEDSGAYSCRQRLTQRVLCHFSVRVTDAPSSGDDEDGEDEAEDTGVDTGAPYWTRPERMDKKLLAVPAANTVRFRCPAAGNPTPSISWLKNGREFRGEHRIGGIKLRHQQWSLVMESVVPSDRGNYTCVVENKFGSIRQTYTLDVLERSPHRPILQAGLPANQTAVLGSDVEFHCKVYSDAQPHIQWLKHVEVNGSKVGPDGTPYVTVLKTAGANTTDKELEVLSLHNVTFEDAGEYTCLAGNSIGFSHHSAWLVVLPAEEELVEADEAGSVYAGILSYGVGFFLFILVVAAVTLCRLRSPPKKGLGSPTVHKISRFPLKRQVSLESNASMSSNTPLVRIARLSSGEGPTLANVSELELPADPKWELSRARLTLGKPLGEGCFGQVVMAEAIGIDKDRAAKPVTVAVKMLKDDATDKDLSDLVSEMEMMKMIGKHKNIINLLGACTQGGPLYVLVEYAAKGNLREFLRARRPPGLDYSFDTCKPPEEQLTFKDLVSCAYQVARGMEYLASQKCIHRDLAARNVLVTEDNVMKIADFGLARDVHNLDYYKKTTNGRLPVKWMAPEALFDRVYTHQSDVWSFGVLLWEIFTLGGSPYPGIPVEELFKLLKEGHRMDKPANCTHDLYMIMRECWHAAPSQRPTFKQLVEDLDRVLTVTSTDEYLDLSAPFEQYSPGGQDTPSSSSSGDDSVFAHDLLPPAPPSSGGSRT
Insulin-like growth factor 1 receptor (Homo sapiens), sequence (P08069 31-736 limits assumed): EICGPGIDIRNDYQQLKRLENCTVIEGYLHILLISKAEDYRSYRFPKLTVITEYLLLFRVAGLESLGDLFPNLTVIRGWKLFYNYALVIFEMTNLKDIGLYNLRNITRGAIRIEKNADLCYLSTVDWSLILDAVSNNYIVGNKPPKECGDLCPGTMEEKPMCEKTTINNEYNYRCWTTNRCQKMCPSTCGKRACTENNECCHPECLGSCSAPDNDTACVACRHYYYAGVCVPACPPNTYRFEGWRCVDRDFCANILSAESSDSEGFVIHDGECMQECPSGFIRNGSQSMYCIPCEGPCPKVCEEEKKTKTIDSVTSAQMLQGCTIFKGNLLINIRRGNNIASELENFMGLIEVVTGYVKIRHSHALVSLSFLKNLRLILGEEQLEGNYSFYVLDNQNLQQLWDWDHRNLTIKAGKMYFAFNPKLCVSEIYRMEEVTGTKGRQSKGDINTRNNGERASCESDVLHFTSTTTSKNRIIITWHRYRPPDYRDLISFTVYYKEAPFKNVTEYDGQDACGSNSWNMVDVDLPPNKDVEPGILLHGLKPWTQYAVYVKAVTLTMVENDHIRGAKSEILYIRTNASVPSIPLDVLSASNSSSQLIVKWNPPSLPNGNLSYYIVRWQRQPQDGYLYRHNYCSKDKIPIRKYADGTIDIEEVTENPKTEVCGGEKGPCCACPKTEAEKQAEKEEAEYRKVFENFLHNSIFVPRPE
Insulin-like growth factor 1 receptor (Homo sapiens), sequence (P08069 741-1367 limits assumed): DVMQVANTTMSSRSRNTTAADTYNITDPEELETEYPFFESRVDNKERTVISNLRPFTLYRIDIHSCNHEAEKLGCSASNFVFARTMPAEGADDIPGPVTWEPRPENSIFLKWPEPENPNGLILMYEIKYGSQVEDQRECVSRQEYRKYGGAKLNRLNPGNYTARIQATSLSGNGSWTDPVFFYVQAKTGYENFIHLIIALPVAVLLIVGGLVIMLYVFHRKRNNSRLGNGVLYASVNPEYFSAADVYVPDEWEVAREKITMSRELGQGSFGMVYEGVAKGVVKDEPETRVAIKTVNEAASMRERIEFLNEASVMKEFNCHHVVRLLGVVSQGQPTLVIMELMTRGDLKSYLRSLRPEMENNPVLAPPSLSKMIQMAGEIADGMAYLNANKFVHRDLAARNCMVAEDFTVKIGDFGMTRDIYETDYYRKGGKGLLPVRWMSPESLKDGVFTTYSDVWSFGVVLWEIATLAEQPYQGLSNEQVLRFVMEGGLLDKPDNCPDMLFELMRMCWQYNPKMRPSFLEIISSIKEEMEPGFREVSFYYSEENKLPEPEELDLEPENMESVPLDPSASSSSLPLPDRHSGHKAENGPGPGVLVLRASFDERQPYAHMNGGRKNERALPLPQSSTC
Proto-oncogene tyrosine-protein kinase Src (Homo sapiens), sequence (P12931 2-536 limits assumed): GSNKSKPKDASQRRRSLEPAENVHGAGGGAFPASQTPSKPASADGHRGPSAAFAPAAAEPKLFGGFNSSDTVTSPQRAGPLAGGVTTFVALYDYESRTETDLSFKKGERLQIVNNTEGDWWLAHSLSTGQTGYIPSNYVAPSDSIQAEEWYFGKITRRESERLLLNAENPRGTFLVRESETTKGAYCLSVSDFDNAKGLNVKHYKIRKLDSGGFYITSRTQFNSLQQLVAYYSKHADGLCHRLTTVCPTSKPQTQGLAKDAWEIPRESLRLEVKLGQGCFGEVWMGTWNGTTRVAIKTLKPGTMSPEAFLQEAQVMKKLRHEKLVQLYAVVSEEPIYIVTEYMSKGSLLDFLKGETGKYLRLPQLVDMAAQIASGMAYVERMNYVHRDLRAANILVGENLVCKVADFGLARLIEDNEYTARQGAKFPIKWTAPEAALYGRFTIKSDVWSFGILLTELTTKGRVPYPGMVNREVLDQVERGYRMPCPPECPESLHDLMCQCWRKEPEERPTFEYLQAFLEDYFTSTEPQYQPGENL
Tyrosine-protein kinase ABL1 (Homo sapiens), sequence (P00519 whole entry): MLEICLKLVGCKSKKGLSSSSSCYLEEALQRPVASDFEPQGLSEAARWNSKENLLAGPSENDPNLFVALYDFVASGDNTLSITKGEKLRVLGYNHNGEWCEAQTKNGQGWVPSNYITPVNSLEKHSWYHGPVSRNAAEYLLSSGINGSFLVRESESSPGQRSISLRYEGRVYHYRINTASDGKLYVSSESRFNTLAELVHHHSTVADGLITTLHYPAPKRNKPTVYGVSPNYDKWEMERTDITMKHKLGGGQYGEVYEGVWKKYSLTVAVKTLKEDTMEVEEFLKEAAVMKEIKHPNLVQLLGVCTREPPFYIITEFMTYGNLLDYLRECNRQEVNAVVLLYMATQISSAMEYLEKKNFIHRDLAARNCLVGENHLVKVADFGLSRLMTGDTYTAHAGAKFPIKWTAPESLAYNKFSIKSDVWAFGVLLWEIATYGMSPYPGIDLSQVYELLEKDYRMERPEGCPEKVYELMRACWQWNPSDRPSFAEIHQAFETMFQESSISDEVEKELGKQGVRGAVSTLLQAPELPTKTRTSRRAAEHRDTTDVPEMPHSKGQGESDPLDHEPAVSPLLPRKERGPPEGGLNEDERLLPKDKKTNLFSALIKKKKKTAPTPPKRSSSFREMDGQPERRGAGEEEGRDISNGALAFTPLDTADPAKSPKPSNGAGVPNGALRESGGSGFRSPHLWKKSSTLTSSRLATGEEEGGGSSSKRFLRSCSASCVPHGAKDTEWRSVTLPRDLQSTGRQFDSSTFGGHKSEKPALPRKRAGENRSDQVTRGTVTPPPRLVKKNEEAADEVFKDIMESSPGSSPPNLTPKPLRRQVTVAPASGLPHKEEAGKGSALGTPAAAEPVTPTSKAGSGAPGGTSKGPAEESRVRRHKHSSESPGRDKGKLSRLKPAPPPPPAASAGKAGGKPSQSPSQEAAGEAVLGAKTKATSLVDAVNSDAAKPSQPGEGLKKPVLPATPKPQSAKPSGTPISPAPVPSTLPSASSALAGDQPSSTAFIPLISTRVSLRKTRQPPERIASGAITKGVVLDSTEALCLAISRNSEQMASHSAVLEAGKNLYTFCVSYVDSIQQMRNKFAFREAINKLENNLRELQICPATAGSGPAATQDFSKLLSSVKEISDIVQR
Serine/threonine-protein kinase pim-1 (Homo sapiens), sequence (P11309 whole entry, looked up): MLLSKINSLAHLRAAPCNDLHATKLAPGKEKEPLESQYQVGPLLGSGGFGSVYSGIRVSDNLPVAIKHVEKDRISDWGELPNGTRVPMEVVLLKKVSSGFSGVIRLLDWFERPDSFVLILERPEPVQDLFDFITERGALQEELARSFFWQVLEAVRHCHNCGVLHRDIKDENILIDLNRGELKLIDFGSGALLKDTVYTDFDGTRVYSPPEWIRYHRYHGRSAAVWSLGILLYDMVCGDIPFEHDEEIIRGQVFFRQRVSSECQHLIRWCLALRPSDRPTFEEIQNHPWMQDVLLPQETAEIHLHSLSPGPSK

For `CC(=O)Nc1ccc(-n2cnc3cc(-c4ccc(OCCN5CCCCC5)cc4)ccc32)cc1`, the IC50 in [1] was 23.6 nM; with KM12, 358 nM; in series [9], 92.5 nM; in series [11], 43.8 nM; in the series on MV4-11 [19], 54.9 nM; with MOLM-13 [27] it was 38.8 nM. Moreover, in series [29], the IC50 came to 97.2 nM. Besides, the inhibition came out at 24% in [2]; 27% in series [3]; 77% in [5]; 33% in series [6]; 41% in series [10]; 36% in series [12]. In addition, the inhibition is 19% in series [17]; 5% in series [18]; 13% in series [20]; 78% in series [21]; 63% in series [22]; “Dde” in series [23]. The inhibition in [24] was 79%; in series [25] it was 70%; in series [26] it was 13%; in series [28], “Dde”; in series [30] it was “Dde”; in [31] it was 2%. In addition, the inhibition result in series [32] is “Dde”; in [34], 9%; in series [35] it was 11%. The Activity result in the series on H9c2 and with BNL was “Non-Toxic” in each case. The inhibition result with MOLM-13 [4] and in the series with MV4-11 [8] was “Active” throughout. The result in the series with MV4-11 [7], in the series on MOLM-13 [13], in the series with MV4-11 [14], in the series on MOLM-13 [15], in the series on MV4-11 [16] and in the series on MOLM-13 [33] was Active.

Regarding `CCc1nc(C(N)=O)c(Cc2ccc(N3CCC(N4CCN(C)CC4)CC3)c(OC)c2)nc1CN1CCOCC1`, the IC50 in series [36] was 1.6 nM; in [37], 0.29 nM; in [38] it was 1.8 nM.

These data come from ChEMBL document CHEMBL5131443, “Discovery of a benzimidazole-based dual FLT3/TrKA inhibitor targeting acute myeloid leukemia” (Bioorg Med Chem, 2022).
